Experimental findings from patent US20090011057A1, “FORMULATIONS AND METHODS FOR INHIBITING ANAEROBES, GRAM NEGATIVE BACTERIA, PROTOZOA AND OTHER MICROBIAL GROWTH WITH MORINDA CITRIFOLIA L. ENHANCED FORMULATIONS” (priority 2007, published 2009) are described below.

Assay type in all cases: cell-based
The test system of experiment [1] is Salmonella typhimurium (ATCC 13311). In words: Anti-infective in vitro assay, growth inhibition (turbidity). Conditions: Salmonella typhimuium (ATCC 13311). How it is done:
(§1) In a preliminary investigations the potential usage of the M. citrifolia Noni fruit juice on bacterial species and various protozoan species, which are known to cause economic downfalls in humans and livestock industries were assessed.
(§2) Method employed in this study have been adapted from the scientific literature to maximize reliability and reproducibility. Reference standards were run as an integral part of each assay to ensure the validity of the results obtained. Materials utilized are described in the following charts.

Experiment [2] deals with Trichomonas foetus (Br. M. Strain). In words: Anti-infective in vitro assay, inhibition of growth examined. Conditions: Tritrichomonas foetus, read-out: Reference Compound, Concurrent (MIC). How it is done:
as §1, §2

The subject of experiment [3] is Actinomyces viscosus (ATCC 15987). In words: Anti-infective in vitro assay, growth inhibition (turbidity). The following applies: ATCC15987, read-out: Reference Compound, Concurrent (MIC). How it is done: as §1, §2

≈ marks a conversion by molar mass, not a printed value.

Compound Gentamicin gave an MIC in experiment [1] of 0.3 µg/mL.

Turning to `Cc1ncc([N+](=O)[O-])n1CCO` [Metronidazole], the minimum inhibitory concentration (MIC) in experiment [2] was determined as 3 µg/mL (≈ 17.5 µM).

`CC1(C)S[C@@H]2[C@H](NC(=O)[C@H](N)c3ccccc3)C(=O)N2[C@H]1C(=O)O` [Ampicillin]: in experiment [3], the MIC was found to be 0.03 µg/mL (≈ 0.0859 µM).
